Data published in US10822349B2, “Macrocyclic purines for the treatment of viral infections” (JANSSEN SCIENCES IRELAND UNLIMITED COMPANY, priority 2012, dated 2020).
Like-named read-outs stand apart in the source and are kept apart here.

How the values were obtained:
[1] = rcm bond
[2] = test system: interferon production in human PBMC; test: Interferon production in human PBMC, read out on HEK-ISRE-luc reporter cells; type: cell-based; details: lowest effective concentration, PBMC supernatant after overnight incubation transferred to HEK-ISRE-luc cells; for minimal effective concentration: Homo sapiens, PBMC, 24 h, read-out: PBMC HEK-ISRE-luc (LEC; μM)
Protocol: Activation of human TLR7 results in robust production of interferon by plasmacytoid dendritic cells present in human blood. The potential of compounds to induce interferon was evaluated by determination of interferon in the conditioned media from peripheral blood mononuclear cells (PBMC). The presence of interferon in the samples was determined, using an interferon reporter cell line stably expressing an interferon-stimulated responsive elements (ISRE)-luc reporter construct. The ISRE element with sequence GAAACTGAAACT (SEQ ID: 1) is highly responsive to the STAT1-STAT2-IRF9 transcription factor, which becomes activated upon binding of IFN-I to the IFN receptor. Briefly, PBMCs were prepared from buffy coats of at least two donors using a standard Ficoll centrifugation protocol. Isolated PBMCs were resuspended in RPMI medium supplemented with 10% human AB serum and 2×10^5 cells/well were dispensed into 384-well plates containing compounds (70 μL total volume). After overnight incubation of the PBMCs with the compounds, 10 μL of supernatant was transferred to 384-well plates containing 5×10^3 HEK-ISRE-luc cells/well in 30 μL (plated the day before). Following 24 hours of incubation, activation of the ISRE elements was measured by assaying luciferase activity using 40 μL/well Steady Lite Plus substrate (Perkin Elmer) and measured with ViewLux ultraHTS microplate imager (Perkin Elmer). The stimulating activity of each compound on the HEK-ISRE-luc cells was reported as LEC. The LEC in turn indicates the degree of ISRE activation on transfer of a defined amount of PBMC culture medium. Recombinant interferon alfa-2a (Roferon-A) was used as a standard control compound.

human TLR7 = target: T1, human TLR7 (Homo sapiens, UniProt Q9NYK1); test: TLR7 cellular reporter assay (HEK293 TLR7-NFκB-luc); type: cell-based; details: lowest effective concentration; HEK293 transiently transfected with TLR7 and NFκB-luc; 6 hours incubation
T1 construct: expressed in transfected cells; host or cells: HEK293
T1 sequence (Q9NYK1 27-1049): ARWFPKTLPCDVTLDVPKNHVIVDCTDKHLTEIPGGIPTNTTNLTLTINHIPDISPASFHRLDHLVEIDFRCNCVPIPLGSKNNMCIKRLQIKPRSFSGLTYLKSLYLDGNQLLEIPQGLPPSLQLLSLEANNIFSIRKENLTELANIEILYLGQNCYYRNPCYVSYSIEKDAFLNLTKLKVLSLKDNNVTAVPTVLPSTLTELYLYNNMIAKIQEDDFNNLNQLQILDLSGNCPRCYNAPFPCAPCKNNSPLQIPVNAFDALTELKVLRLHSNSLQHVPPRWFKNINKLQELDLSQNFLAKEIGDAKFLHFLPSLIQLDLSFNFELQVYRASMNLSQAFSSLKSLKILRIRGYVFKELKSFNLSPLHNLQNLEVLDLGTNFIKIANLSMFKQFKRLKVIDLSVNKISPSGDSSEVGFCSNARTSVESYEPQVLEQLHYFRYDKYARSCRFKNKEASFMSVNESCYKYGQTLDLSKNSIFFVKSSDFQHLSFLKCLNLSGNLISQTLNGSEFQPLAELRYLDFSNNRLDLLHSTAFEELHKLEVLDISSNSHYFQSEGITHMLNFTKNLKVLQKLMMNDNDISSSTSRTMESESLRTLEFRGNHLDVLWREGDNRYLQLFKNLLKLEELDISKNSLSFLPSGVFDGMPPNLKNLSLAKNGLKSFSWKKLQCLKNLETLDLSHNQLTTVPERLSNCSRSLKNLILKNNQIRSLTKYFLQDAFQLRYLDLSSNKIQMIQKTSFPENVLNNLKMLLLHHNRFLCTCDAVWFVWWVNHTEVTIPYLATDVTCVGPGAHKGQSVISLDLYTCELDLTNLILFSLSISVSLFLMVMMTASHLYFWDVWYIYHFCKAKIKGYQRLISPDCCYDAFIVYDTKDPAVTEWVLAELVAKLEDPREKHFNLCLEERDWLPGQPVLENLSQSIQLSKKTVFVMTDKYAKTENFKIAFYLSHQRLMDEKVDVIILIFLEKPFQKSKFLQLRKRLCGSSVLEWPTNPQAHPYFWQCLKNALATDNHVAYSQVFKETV
Protocol: The ability of compounds to activate human TLR7 and TLR8 was assessed in a cellular reporter assay using HEK293 cells transiently transfected with a TLR7 or TLR8 expression vector and NFκB-luc reporter construct. Briefly, HEK293 cells were grown in culture medium (DMEM supplemented with 10% FCS and 2 mM Glutamine). For transfection of cells in 10 cm dishes, cells were detached with Trypsin-EDTA, transfected with a mix of CMV-TLR7 or TLR8 plasmid (750 ng), NFκB-luc plasmid (375 ng) and a transfection reagent and incubated 48 hours at 37° C. in a humidified 5% CO2 atmosphere. Transfected cells were then detached with Trypsin-EDTA, washed in PBS and resuspended in medium to a density of 1.67×10^5 cells/mL. Thirty microliters of cells were then dispensed into each well in 384-well plates, where 10 μL of compound in 4% DMSO was already present. Following 6 hours incubation at 37° C., 5% CO2, the luciferase activity was determined by adding 15 μl of Steady Lite Plus substrate (Perkin Elmer) to each well and readout performed on a ViewLux ultraHTS microplate imager (Perkin Elmer). Dose response curves were generated from measurements performed in quadruplicates. Lowest effective concentrations (LEC) values, defined as the concentration that induces an effect which is at least two fold above the standard deviation of the assay, were determined for each compound.

| SMILES | HEK293 TLR7-NFκB-luc (LEC; μM) (human TLR7) | minimal effective concentration [2] | further results |
| --- | --- | --- | --- |
| CCOC(=O)N1Cc2cccc(c2)OCC=CCOc2nc(N)c([N+](=O)[O-])c1n2 | – | – | ring closure, yield of all isomers ([1]; from C=CCOc1cccc(CN(C(=O)OCC)c2nc(OCC=C)nc(N)c2[N+](=O)[O-])c1, Hoveyda-Grubbs 2nd generation (with chlorodicyclohexylborane), 1,2-dichloroethane, 4.22 mM, 120.0 °C, 4.0 h): 36% |
| CCOC(=O)N1Cc2ccc(OC)c(c2)OCC=CCOc2nc(N)c([N+](=O)[O-])c1n2 | – | – | ring closure, yield of all isomers ([1]; from C=CCOc1nc(N)c([N+](=O)[O-])c(N(Cc2ccc(OC)c(OCC=C)c2)C(=O)OCC)n1, Grubbs catalyst 2nd generation, CH2Cl2, 3.63 mM, 25.0 °C, 66.0 h): 7.6% |
| Nc1nc2nc3c1ncn3Cc1cccc(c1)CC=CCCO2 | – | – | ring closure, yield of all isomers ([1]; from C=CCCOc1nc(N)c2ncn(Cc3cccc(CC=C)c3)c2n1, Hoveyda-Grubbs 2nd generation (with chlorodicyclohexylborane), 1,2-dichloroethane, 2.98 mM, 120.0 °C, 23.0 h): 34% |
| CCOC(=O)N1Cc2ccc(F)c(c2)OCC=CCOc2nc(N)c([N+](=O)[O-])c1n2 | – | – | ring closure, yield of all isomers ([1]; from C=CCOc1nc(N)c([N+](=O)[O-])c(N(Cc2ccc(F)c(OCC=C)c2)C(=O)OCC)n1, Grubbs-Hoveyda catalyst 2nd generation (with chlorodicyclohexylborane), 1,2-dichloroethane, 5.07 mM, 120.0 °C, 3.0 h): 58% |
| COc1nc2c(N)nc3nc2n1Cc1cccc(c1)CC=CCCO3 | – | – | ring closure, yield of all isomers ([1]; from C=CCCOc1nc(N)c2nc(OC)n(Cc3cccc(CC=C)c3)c2n1, Grubbs catalyst 2nd generation, CH2Cl2, 3.42 mM, 24.0 h): 23% |
| CCOC(=O)N1CCc2cccc(c2)OCC=CCCOc2nc(N)c([N+](=O)[O-])c1n2 | – | – | ring closure, yield of all isomers ([1]; from C=CCCOc1nc(N)c([N+](=O)[O-])c(N(CCc2cccc(OCC=C)c2)C(=O)OCC)n1, Grubbs catalyst 2nd generation, CH2Cl2, 5.2 mM, 25.0 °C, 7.0 h): 52% |
| CCOC(=O)N1Cc2ncccc2OCC=CCCOc2nc(N)c([N+](=O)[O-])c1n2 | – | – | ring closure, yield of all isomers ([1]; from C=CCCOc1nc(N)c([N+](=O)[O-])c(N(Cc2ncccc2OCC=C)C(=O)OCC)n1, Hoveyda-Grubbs 2nd generation (with chlorodicyclohexylborane), 1,2-dichloroethane, 3.74 mM, 80.0 °C, 1.0 h): 70% |
| CCOc1nc2c(N)nc3nc2n1Cc1cccc(c1)CC=CCCCn1ccnc1-3 | – | – | ring closure, yield of all isomers ([1]; from C=CCCCn1ccnc1-c1nc(N)c2nc(OCC)n(Cc3cccc(CC=C)c3)c2n1, Grubbs catalyst 2nd generation, CH2Cl2, 3.76 mM, 25.0 °C, 24.0 h): 5% |
| CCOC(=O)N1Cc2cc(OC)cc(c2)OCC=CCOc2nc(N)c([N+](=O)[O-])c1n2 | – | – | ring closure, yield of all isomers ([1]; from C=CCOc1cc(CN(C(=O)OCC)c2nc(OCC=C)nc(N)c2[N+](=O)[O-])cc(OC)c1, Grubbs-Hoveyda catalyst 2nd generation (with chlorodicyclohexylborane), 1,2-dichloroethane, 3.63 mM, 120.0 °C, 18.0 h): 27% |
| CCOC(=O)N1Cc2cccc(c2)CC=CCCCOc2nc(N)c([N+](=O)[O-])c1n2 | – | – | ring closure, yield of all isomers ([1]; from C=CCCCOc1nc(N)c([N+](=O)[O-])c(N(Cc2cccc(CC=C)c2)C(=O)OCC)n1, Grubbs catalyst 2nd generation, CH2Cl2, 3.13 mM, 25.0 °C, 2.0 h): 73% |
| CCOC(=O)N1Cc2cccc(c2)CC=CCCOc2nc(N)c([N+](=O)[O-])c1n2 | – | – | ring closure, yield of all isomers ([1]; from C=CCCOc1nc(N)c([N+](=O)[O-])c(N(Cc2cccc(CC=C)c2)C(=O)OCC)n1, Grubbs catalyst 2nd generation, CH2Cl2, 3.14 mM, 25.0 °C, 16.0 h): 27.4% |
| Nc1nc2nc3c1ncn3Cc1ncccc1OCC=CCCO2 | – | – | ring closure, yield of all isomers ([1]; from C=CCCOc1nc(N)c2ncn(Cc3ncccc3OCC=C)c2n1, Grubbs-Hoveyda catalyst 2nd generation (with chlorodicyclohexylborane), 1,2-dichloroethane, 3.04 mM, 120.0 °C, 10.0 h): 5% |
| COc1ccc2cc1OC/C=C\COc1nc(N)c3nc(O)n(c3n1)C2 [Compound 60] | 0.088 µM | – | PBMC HEK-ISRE-luc (LEC; μM) ([2]; 24 hours): 0.033 µM |
| COc1ccc2cc1CCCCCOc1nc(N)c3nc(O)n(c3n1)C2 [Compound 66] | 0.032 µM | 0.018 µM | – |
| Nc1nc2nc3c1nc(O)n3CCc1cccc(c1)OC/C=C/CO2 [Compound 32] | 0.92 µM | 0.12 µM | – |
| Nc1nc2nc3c1nc(O)n3Cc1cccc(c1)OCCCCCCO2 [Compound 43] | 0.11 µM | 0.034 µM | – |
| Nc1nc2nc3c1nc(O)n3Cc1cccc(c1)CCCCCCn1ccnc1-2 [Compound 4] | 3.27 µM | 0.64 µM | – |
| Nc1nc2nc3c1nc(O)n3Cc1cccc(c1)OC/C=C/CCO2 [Compound 27] | 1.31 µM | 0.11 µM | – |
| Nc1nc2nc3c1nc(O)n3Cc1cccc(c1)OCCCCCN2 [Compound 14] | 1.68 µM | 0.51 µM | – |
| Nc1nc2nc3c1nc(O)n3Cc1cccc(c1)OCCCCCO2 [Compound 38] | 0.53 µM | 0.027 µM | – |
| Nc1nc2nc3c1nc(O)n3Cc1ccc(cc1)C/C=C/CCCCO2 [Compound 30] | 0.87 µM | 0.56 µM | – |
| Nc1nc2nc3c1nc(O)n3Cc1cc(ccn1)OC/C=C/CCO2 [Compound 51] | 0.74 µM | 0.069 µM | – |
| COc1cc2cc(c1)OCCCCOc1nc(N)c3nc(O)n(c3n1)C2 [Compound 53] | 0.029 µM | 0.01 µM | – |
| Nc1nc2nc3c1nc(O)n3Cc1cccc(c1)OC/C=C/CCCO2 [Compound 33] | 0.17 µM | 0.11 µM | – |
| Nc1nc2nc3c1nc(O)n3Cc1ncccc1OCCCCCO2 [Compound 50] | 1.19 µM | 0.24 µM | – |
| Nc1nc2nc3c1nc(O)n3Cc1cccc(c1)OCCOCCN2 [Compound 13] | 14.69 µM | 4.7 µM | – |
| COc1ccc2cc1C/C=C/CCOc1nc(N)c3nc(O)n(c3n1)C2 [Compound 68] | 0.006 µM | 0.0057 µM | – |
